Experimental data taken from patent US20090130223A1, “COSMETIC PREPARATION WITH AQUAPORIN STIMULATORS AND THE USE THEREOF” (priority 2006, published 2009).

System: aquaporin-3 mRNA in human keratinocytes
Test: AQP-3 mRNA expression in human keratinocytes by quantitative RT-PCR
Type: cell-based
Details: 24 h, 3% w/v glycerol glucoside in culture medium (450 mOsm), compared with 1% w/v glycerin, 2.25% w/v glucose, and 1.5% w/v glycerol glucoside + 0.5% w/v glycerin
Method: To this end, human keratinocytes were treated in triplicate in cell culture (37° C., Medium Cambrex No. CC-3158 incl. Supplement kit No. CC-4152; +0.1 mM CaCl2) for 24 h as follows: • Untreated control (corresponds to 330 mOsm, isomolar culture medium) • Addition of 1% w/v glycerin to the culture medium (corresponds to 450 mOsm, osmotic stress) • Addition of 1.5% w/v glycerol glucoside and 0.5% w/v glycerin to the culture medium (corresponds to 450 mOsm osmotic stress, mixture ratio regarding number of particles 1:1) • Addition of 3% w/v glycerol glucoside to the culture medium (corresponds to 450 mOsm, osmotic stress) • Addition of 2.25% w/v glucose to the culture medium (corresponds to 450 mOsm, osmotic stress)
The different amounts used are due to the different molecular weights of the substances. The contribution to the increase in osmolarity in the culture medium depends solely on the added particle number, and this is the same in all of the tests.
After harvest and lysis the entire RNA was isolated from the cells and the aquaporin-3 mRNA relatively contained was determined by means of quantitative RT-PCR.
The concentration indication w/v means mass per volume, wherein 1.0% w/v corresponds to one gram substance in 100 ml solution.

Glyceryl glucoside
expression level of the aquaporin-3 mRNA relativized on 18S rRNA (stimulating effect): better stimulating effect than classic glycerin or glucose alone or a 1:1 mixture of glycerin and glyceryl glucoside
